For experiment [1], the target named is T1, CLK1 (Homo sapiens, UniProt P49759).
T1 construct: purchased DiscoveRx KINOMEscan (Ambit Biosciences)
Put plainly: KINOMEscan panel screen. The experiment is classed as binding. The conditions noted are these: read-out: Percent Control(%).

Experiment [2] has as its target T2, EGFR(E746-A750del) (Homo sapiens, UniProt P00533, DEL746-750).
T2 construct: purchased DiscoveRx KINOMEscan (Ambit Biosciences)
Put plainly: KINOMEscan panel screen. The experiment is classed as binding. The following applies: read-out: Percent Control(%).

The target in experiment [3] is T3, AMPK-alpha1 (Homo sapiens, UniProt Q13131).
T3 construct: purchased DiscoveRx KINOMEscan (Ambit Biosciences)
Kind of experiment: KINOMEscan panel screen. The conditions noted are these: read-out: Percent Control(%). The experiment is classed as binding.

Experiment [4] has as its target T4, DCAMKL3 (Homo sapiens, UniProt Q9C098).
T4 construct: purchased DiscoveRx KINOMEscan (Ambit Biosciences)
Put plainly: KINOMEscan panel screen. In kind it is binding. The following applies: read-out: Percent Control(%).

Experiment [5] has as its target T5, ERK4 (Homo sapiens, UniProt P31152).
T5 construct: purchased DiscoveRx KINOMEscan (Ambit Biosciences)
Put plainly: KINOMEscan panel screen. In kind it is binding. The conditions noted are these: read-out: Percent Control(%).

In experiment [6] the target is T6, PIK3CD (Homo sapiens, UniProt O00329).
T6 construct: purchased DiscoveRx KINOMEscan (Ambit Biosciences)
Put plainly: KINOMEscan panel screen. The experiment is classed as binding. The following applies: read-out: Percent Control(%).

Experiment [7] has as its system H441. Kind of experiment: MTT cell viability assay. The conditions noted are these: Homo sapiens, NCI-H441, 72 h.
For experiment [8], the target named is T7, RPS6KA4(Kin.Dom.1-N-terminal) (Homo sapiens, UniProt O75676).
T7 construct: RPS6KA4(Kin.Dom.1-N-terminal); purchased DiscoveRx KINOMEscan (Ambit Biosciences)
Put plainly: KINOMEscan panel screen. The experiment is classed as binding. The following applies: read-out: Percent Control(%).

In experiment [9] the target is T8, FES (Homo sapiens, UniProt P07332).
T8 construct: purchased DiscoveRx KINOMEscan (Ambit Biosciences)
Kind of experiment: KINOMEscan panel screen. The experiment is classed as binding. The conditions noted are these: read-out: Percent Control(%).

For experiment [10], the target named is T9, DMPK (Homo sapiens, UniProt Q09013).
T9 construct: purchased DiscoveRx KINOMEscan (Ambit Biosciences)
T9 sequence (Q09013 1-629): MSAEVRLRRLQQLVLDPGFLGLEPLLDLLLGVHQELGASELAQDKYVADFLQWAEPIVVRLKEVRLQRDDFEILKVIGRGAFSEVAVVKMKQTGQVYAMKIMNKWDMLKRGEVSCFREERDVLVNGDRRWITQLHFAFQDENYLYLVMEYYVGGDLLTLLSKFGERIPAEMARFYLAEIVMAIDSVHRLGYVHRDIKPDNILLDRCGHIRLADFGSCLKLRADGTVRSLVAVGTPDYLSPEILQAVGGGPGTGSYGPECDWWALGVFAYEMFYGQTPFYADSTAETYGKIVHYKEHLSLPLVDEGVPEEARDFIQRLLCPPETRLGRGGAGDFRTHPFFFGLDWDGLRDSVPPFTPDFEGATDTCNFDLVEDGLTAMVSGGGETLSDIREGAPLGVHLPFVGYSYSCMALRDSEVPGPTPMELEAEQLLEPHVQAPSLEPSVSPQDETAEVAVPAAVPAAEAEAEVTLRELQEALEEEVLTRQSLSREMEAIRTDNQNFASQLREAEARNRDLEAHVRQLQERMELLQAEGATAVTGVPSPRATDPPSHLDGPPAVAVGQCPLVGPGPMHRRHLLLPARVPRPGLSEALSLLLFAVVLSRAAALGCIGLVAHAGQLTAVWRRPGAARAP
Put plainly: KINOMEscan kinase binding assay (Kd). The conditions noted are these: Table S1. From the text: (§1) In vitro KINOMEscan kinase binding assays (Ambit Biosciences) were employed to determine the binding affinity (Kd) of compounds[41][42].
(§2) compound 1. The y have very similar spectrum of activity in enz ymatic and cellular
(§3) levels. Both of them have the ability to inhibit Wnt/β -catenin si gnalin g. However, in […]

Experiment [11] concerns the target PAK1 (Homo sapiens, UniProt Q13153). Kind of experiment: KINOMEscan kinase binding assay (Kd). The following applies: Table S1.
Description: as §1, §2, §3

Experiment [12] has as its target T10, DLK (Homo sapiens, UniProt Q12852).
T10 sequence (Q12852 1-859): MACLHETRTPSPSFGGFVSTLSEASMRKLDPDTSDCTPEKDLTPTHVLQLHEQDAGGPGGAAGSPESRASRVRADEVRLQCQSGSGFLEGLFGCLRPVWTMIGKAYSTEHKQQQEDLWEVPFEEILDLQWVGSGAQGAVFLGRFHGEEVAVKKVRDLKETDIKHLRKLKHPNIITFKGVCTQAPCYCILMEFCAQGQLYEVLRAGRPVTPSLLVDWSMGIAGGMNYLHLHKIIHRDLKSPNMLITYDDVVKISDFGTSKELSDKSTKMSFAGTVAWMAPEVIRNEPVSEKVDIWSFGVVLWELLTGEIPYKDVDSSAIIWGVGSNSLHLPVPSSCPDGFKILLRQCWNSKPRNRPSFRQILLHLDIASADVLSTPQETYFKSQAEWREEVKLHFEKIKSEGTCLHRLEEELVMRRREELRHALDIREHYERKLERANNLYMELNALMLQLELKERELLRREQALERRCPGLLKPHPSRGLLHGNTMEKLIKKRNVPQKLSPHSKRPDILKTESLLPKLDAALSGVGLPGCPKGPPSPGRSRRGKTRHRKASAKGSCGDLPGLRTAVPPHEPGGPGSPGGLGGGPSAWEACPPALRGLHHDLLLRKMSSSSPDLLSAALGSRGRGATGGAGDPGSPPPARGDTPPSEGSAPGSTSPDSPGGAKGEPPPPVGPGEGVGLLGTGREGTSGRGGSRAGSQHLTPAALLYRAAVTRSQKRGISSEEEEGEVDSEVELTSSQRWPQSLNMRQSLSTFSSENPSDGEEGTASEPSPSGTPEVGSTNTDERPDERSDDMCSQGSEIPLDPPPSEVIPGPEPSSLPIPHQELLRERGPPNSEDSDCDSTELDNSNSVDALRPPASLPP
Put plainly: KINOMEscan kinase binding assay (Kd). The conditions noted are these: Table S1.
Description: as §1, §2, §3

Experiment [13] deals with T11, RPS6KA5(Kin.Dom.2-C-terminal) (Homo sapiens, UniProt O75582).
T11 construct: RPS6KA5(Kin.Dom.2-C-terminal); purchased DiscoveRx KINOMEscan (Ambit Biosciences)
Put plainly: KINOMEscan panel screen. The experiment is classed as binding. The following applies: read-out: Percent Control(%).

T11 sequence (O75582 426-687 limits assumed): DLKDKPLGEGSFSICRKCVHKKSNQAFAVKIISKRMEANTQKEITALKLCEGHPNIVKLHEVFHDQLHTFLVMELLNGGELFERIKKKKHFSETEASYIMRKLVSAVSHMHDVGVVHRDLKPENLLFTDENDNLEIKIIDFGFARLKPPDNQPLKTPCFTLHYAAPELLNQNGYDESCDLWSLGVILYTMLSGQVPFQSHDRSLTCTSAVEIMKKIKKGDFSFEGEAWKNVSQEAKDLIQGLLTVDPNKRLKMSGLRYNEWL
T2 sequence (P00533 with tags, fused parts or gaps DEL746-750 limits assumed): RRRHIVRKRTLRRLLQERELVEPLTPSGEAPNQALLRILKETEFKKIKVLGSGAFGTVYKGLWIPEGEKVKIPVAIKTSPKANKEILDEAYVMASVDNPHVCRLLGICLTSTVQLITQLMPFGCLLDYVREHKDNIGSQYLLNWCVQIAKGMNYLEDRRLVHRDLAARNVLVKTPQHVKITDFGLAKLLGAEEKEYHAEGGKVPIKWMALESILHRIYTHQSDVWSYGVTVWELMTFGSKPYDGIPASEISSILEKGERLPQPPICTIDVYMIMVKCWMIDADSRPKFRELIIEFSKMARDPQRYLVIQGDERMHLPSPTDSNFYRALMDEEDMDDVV
T5 sequence (P31152 whole entry): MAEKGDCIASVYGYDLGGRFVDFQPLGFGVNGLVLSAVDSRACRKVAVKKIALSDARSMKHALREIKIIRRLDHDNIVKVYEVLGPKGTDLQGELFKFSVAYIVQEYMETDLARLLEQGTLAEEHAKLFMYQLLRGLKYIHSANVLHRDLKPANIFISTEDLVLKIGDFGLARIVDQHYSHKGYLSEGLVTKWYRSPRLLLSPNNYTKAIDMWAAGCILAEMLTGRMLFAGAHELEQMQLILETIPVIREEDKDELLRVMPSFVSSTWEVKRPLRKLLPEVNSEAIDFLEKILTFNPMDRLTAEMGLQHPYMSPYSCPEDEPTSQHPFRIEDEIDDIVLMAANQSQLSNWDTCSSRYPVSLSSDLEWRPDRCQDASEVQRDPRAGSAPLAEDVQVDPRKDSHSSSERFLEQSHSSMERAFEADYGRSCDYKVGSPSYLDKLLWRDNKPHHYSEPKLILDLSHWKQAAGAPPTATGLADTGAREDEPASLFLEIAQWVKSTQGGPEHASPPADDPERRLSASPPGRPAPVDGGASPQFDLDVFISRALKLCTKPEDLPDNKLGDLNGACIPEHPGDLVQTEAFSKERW
T3 sequence (Q13131 whole entry): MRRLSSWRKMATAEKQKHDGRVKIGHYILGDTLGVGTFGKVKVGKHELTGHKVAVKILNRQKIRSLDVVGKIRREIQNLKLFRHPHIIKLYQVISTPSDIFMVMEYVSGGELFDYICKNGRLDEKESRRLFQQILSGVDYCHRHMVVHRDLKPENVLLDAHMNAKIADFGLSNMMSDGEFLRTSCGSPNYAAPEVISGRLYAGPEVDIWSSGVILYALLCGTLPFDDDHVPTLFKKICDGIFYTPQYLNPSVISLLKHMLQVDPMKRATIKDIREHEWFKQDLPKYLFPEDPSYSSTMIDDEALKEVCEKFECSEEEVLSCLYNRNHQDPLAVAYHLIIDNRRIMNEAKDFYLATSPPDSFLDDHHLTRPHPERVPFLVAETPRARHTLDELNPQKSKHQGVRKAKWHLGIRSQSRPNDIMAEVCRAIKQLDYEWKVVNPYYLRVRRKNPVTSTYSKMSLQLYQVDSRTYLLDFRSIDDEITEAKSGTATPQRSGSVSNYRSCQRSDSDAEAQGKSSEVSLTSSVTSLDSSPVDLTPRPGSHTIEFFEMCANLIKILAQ
T7 sequence (O75676 33-301 limits assumed): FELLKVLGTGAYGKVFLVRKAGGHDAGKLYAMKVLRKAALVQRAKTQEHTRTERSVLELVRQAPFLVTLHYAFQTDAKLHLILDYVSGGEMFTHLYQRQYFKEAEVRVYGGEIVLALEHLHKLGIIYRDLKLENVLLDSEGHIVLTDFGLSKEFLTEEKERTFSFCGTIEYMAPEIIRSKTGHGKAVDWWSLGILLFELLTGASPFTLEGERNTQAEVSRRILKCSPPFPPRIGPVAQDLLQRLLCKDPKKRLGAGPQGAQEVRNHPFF
T1 sequence (P49759 whole entry): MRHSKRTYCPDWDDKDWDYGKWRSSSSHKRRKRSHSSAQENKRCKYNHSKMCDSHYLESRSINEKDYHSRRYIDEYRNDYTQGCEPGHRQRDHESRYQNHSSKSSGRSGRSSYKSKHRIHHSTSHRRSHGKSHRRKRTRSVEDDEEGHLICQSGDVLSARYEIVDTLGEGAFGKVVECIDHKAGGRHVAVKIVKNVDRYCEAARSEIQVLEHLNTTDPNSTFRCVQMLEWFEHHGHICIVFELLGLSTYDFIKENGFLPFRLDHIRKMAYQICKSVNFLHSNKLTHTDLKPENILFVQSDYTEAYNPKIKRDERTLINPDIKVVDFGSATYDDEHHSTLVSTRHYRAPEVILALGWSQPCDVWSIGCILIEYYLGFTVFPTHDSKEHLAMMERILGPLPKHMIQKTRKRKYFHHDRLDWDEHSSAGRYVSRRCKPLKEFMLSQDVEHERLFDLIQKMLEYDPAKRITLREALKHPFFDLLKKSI
T4 sequence (Q9C098 whole entry): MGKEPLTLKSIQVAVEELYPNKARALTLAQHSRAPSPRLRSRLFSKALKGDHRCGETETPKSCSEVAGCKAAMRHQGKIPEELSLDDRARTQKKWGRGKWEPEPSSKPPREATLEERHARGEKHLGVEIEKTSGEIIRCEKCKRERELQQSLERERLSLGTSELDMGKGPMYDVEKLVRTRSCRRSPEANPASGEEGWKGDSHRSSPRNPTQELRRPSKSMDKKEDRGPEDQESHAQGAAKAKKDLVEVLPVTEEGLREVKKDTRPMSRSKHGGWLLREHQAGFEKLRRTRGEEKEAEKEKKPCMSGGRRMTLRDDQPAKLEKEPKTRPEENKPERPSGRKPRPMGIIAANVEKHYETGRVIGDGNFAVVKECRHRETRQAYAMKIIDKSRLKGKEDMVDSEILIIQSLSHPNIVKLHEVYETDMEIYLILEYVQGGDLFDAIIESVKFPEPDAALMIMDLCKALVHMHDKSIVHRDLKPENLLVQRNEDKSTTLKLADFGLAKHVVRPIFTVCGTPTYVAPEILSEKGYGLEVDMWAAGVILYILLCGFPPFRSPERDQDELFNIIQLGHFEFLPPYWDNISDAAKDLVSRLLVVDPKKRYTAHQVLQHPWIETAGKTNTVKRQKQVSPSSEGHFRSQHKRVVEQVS
T6 sequence (O00329 whole entry): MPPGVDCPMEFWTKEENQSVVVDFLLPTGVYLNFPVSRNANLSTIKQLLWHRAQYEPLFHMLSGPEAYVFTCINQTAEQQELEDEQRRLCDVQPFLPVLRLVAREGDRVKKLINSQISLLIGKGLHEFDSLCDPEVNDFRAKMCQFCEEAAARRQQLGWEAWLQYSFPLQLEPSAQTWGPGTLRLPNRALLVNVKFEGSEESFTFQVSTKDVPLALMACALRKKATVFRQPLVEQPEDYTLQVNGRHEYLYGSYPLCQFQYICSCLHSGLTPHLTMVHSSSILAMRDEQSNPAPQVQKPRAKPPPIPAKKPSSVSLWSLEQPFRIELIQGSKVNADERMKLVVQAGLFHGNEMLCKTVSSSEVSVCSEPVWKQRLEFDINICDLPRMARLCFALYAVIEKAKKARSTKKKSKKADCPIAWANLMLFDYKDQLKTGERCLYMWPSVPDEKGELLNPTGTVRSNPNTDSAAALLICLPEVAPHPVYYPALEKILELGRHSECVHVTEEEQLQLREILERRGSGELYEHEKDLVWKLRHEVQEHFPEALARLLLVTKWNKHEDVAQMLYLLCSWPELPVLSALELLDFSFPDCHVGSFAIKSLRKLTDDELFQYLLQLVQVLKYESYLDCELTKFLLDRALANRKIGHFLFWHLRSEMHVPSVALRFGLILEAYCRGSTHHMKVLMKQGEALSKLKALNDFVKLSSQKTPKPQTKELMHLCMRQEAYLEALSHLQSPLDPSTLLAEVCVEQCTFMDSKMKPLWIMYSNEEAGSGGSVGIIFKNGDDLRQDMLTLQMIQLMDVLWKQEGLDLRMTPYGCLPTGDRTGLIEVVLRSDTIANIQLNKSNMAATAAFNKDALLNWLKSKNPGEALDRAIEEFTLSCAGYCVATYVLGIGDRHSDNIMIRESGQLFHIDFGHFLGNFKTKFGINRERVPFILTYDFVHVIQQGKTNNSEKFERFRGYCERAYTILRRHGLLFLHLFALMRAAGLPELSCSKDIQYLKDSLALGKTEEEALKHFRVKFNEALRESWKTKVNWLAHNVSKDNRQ
T8 sequence (P07332 whole entry): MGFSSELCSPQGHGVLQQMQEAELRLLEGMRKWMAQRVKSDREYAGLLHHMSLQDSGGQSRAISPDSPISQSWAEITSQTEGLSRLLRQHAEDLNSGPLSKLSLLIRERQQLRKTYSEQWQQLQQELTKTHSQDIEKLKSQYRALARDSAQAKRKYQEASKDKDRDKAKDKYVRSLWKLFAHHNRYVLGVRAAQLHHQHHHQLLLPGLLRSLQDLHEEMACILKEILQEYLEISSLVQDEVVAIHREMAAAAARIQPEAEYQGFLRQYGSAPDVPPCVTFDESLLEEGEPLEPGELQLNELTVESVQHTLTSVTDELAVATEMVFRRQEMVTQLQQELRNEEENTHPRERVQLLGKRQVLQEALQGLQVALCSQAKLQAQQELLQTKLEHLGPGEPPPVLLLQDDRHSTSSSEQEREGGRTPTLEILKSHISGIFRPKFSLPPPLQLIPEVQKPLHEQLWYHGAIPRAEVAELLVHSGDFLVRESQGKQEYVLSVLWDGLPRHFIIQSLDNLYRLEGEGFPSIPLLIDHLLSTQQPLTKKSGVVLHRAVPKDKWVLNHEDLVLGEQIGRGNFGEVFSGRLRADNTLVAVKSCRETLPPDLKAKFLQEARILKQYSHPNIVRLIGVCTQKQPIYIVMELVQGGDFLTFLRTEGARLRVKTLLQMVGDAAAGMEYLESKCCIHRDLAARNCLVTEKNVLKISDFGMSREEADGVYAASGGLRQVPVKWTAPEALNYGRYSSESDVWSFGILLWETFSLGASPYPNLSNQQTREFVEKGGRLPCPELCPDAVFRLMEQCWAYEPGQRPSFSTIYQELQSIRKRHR

In the case of `CC(C)(C)c1cc(NC(=O)Nc2ccc(Oc3ncnc4[nH]ncc34)c(F)c2)no1` [SKLB-677, 1-(4-(1H-pyrazolo[3,4-d]pyrimidin-4-yloxy)-3-fluorophenyl)-3-(5-tert-butylisoxazol-3-yl)urea], the remaining binding at 10 µM turned out to be 5.8% in experiment [1]; 37% in [2]; 3% in experiment [3]; 81% in experiment [4]; 98% in [5]; 98% in experiment [6]. Moreover, the remaining binding at 10 µM turned out to be 29% in experiment [8], 7.2% in [9] and 100% in [13]. In [7], this compound came in with an IC50 above 10 µM. For the same compound, the dissociation constant (Kd) in experiment [10], in experiment [11] and in experiment [12] was above 10 µM in each case.

These data come from article PMC4620497 (Scientific Reports, 2015).
